The NIST ThermoML archive (doi:10.1016/j.jct.2019.02.004)
± gives the expanded uncertainty stated by the source.

Experiments:
[1] = Crystal; DTA
[2] = Molar enthalpy of transition or fusion; conditions: Crystal; DSC

For `CC(=O)Nc1ccc(Cl)cc1` [N(4-chlorophenyl)ethanamide], the Normal melting temperature [1] was 175.7 ± 1.1 °C and the “Molar enthalpy of transition or fusion” value [2] was 27.1 ± 0.98 kJ/mol.
